Results as given in patent US10000488B2, “Heterocyclic compound” (TAKEDA PHARMACEUTICAL COMPANY LIMITED, priority 2014, dated 2018).

Key:
RORγt [1] = biological target: T1, RORγt (Homo sapiens, UniProt P51449); experiment: RORγt binding test using fluorescent-labeled synthetic ligand (TR-FRET); conditions: test compound 1 μM; read-out: binding inhibitory rate (%) of fluorescent-labeled synthetic ligand to RORγt at test compound 1 μM
T1 sequence (P51449 1-497 isoform P51449-2): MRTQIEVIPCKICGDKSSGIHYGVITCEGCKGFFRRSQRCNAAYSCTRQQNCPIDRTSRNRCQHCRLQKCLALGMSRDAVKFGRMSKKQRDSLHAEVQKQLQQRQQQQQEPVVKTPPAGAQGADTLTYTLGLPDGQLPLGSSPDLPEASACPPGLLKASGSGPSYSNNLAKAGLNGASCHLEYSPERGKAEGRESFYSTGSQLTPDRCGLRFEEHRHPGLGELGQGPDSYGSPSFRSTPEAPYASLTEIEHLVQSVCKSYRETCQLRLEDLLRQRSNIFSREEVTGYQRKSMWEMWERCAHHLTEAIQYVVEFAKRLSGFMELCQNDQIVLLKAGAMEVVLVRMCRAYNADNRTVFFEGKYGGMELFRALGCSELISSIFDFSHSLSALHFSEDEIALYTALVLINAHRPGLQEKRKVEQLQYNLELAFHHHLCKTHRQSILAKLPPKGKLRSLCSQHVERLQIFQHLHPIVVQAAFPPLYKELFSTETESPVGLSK
Summary of the method: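 Compound displacement of a fluorescent-labeled synthetic ligand from His-tagged RORγt was read by TR-FRET with a terbium anti-His antibody. Buffer was 20 mM Tris-HCl pH 7.5, 100 mM NaCl, 1 mM DTT and 0.1% BSA, with stocks of 240 nM protein, 12 μM ligand and 8 nM antibody (pre-mix, not final). Incubations were 20 min plus 20 min at room temperature, with excitation at 320 nm, emission at 520 nm and a 100 μs delay.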

RORγt [2] = biological target: T1, RORγt; experiment: Jurkat reporter test (human IL-17 ROR response element luciferase reporter, RORγt vector); format: cell-based; conditions: test compound 3 μM; Jurkat cells; read-out: luminescence level inhibitory rate (%) at test compound 3 μM
Summary of the method: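 Jurkat cells were electroporated (1350 V, 10 ms, 3 pulses) with the reporter constructs and plated in RPMI with 10% lipid-reduced FCS, 10 mM HEPES pH 7.5 and 5 μM lovastatin. After overnight culture with compound, luciferase activity was measured by luminescence following a 10 min room-temperature incubation with Bright-Glo.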

RORγt [3] = biological target: T1, RORγt; experiment: Cofactor recruitment test (Alpha Screen, biotinylated SRC-1 peptide); format: biochemical; conditions: read-out: signal value inhibitory rate (%) at test compound 1 μM
Procedure: Cofactor Recruitment Test
Cofactor recruitment test was performed by Alpha Screen (Histidine Detection Kit, PerkinElmer) method. First, a test compound was diluted with an assay buffer (50 mM Tris-HCl (pH 7.5), 50 mM KCl, 1 mM DTT, 0.1% BSA) and added to a 384 well plate by 5 μL. […] The mixture was stood in a dark place for 1 hr, and the signal value was measured by Envision (PerkinElmer).

Row | Structure (SMILES) | inhibition at 1 µM (RORγt [1]) | inhibition at 3 µM (RORγt [2]) | inhibition at 1 µM (RORγt [3])
1 | CC(C)n1c(=O)n(C[C@@H]2CCCO2)c(=O)c2cc(NC(=O)N3CCO[C@@H](C(=O)Nc4cc(Cl)c(C#N)cc4F)C3)c(F)cc21 [Example 358, (2R)—N^2-(5-chloro-4-cyano-2-fluorophenyl)-N^4-(7-fluoro-1-isopropyl-2,4-dioxo-3-((2S)-tetrahydrofuran-2-ylmethyl)-1,2,3,4-tetrahydroquinazolin-6-yl)morpholine-2,4-dicarboxamide] | 101% | 106% | 107%
2 | CC(C)n1c(=O)n(CC2CC(F)(F)C2)c(=O)c2cc(NC(=O)N3CCO[C@@H](C(=O)Nc4cc(Cl)c(C#N)cc4F)C3)c(F)cc21 [Example 351, (2R)—N^2-(5-chloro-4-cyano-2-fluorophenyl)-N^4-(3-((3,3-difluorocyclobutyl)methyl)-7-fluoro-1-isopropyl-2,4-dioxo-1,2,3,4-tetrahydroquinazolin-6-yl)morpholine-2,4-dicarboxamide] | 101% | 106% | 108%
3 | CC(C)n1c(=O)n(CC2CC2)c(=O)c2cc(NC(=O)N3CCCC(NC(=O)c4ccc(C#N)c(Cl)c4)C3)ccc21 (stereo not drawn) [Example 88, 3-((3-chloro-4-cyanobenzoyl)amino)-N-(3-(cyclopropylmethyl)-1-isopropyl-2,4-dioxo-1,2,3,4-tetrahydroquinazolin-6-yl)piperidine-1-carboxamide] | 102% | 102% | 102%
4 | CC(C)n1c(=O)n(CC2CCOC2)c(=O)c2cc(NC(=O)N3CCO[C@@H](C(=O)Nc4ccc(C#N)c(Cl)c4)C3)c(F)cc21 (stereo partly drawn) [Example 335, (2R)—N^2-(3-chloro-4-cyanophenyl)-N^4-(7-fluoro-1-isopropyl-2,4-dioxo-3-(tetrahydrofuran-3-ylmethyl)-1,2,3,4-tetrahydroquinazolin-6-yl)morpholine-2,4-dicarboxamide] | 101% | 106% | 108%
5 | CC(C)n1c(=O)n(CC2CC(F)(F)C2)c(=O)c2cc(NC(=O)N3CCC[C@@H](n4cnc5cc(C#N)ccc5c4=O)C3)c(F)cc21 [Example 363, (3R)-3-(7-cyano-4-oxoquinazoline-3(4H)-yl)-N-(3-((3,3-difluorocyclobutyl)methyl)-7-fluoro-1-isopropyl-2,4-dioxo-1,2,3,4-tetrahydroquinazolin-6-yl)piperidine-1-carboxamide] | 102% | 107% | 106%
6 | CC(C)n1c(=O)n(CC2CC2)c(=O)c2cc(NC(=O)[C@@H]3CCC[C@@H]3NC(=O)c3ccc(C#N)cc3)ccc21 [Example 264, 4-cyano-N-((1S,2R)-2-((3-(cyclopropylmethyl)-1-isopropyl-2,4-dioxo-1,2,3,4-tetrahydroquinazolin-6-yl)carbamoyl)cyclopentyl)benzamide] | 102% | 102% | 110%
